Assay results reported in patent US12344620B2, “BRD4 inhibitor compound in solid form and preparation method therefor and use thereof” (CSPC ZHONGQI PHARMACEUTICAL TECHNOLOGY (SHIJIAZHUANG) CO., …, priority 2019, dated 2025).

How the values were obtained:
[1] = Hygroscopicity study by dynamic vapor sorption (DVS); assay type: physicochemical; conditions: 25° C. and 80% RH
Protocol: • Instrument model: SMS DVS advantage dynamic vapor sorption analyzer • Testing conditions: the sample (10-20 mg) was placed in DVS sample trays for testing. Detailed DVS Parameters: • Temperature: 25° C. • Balancing: dm/dt=0.01%/min (shortest: 10 min, longest: 180 min) • Drying: drying for 120 min at 0% RH • RH (%) testing step: 10% • RH (%) testing step range: 0%-90%-0%
The evaluation of hygroscopicity was classified as follows:
• 10-15 mg of the crystalline form A of the compound of formula (I) was placed on a DVS sample tray for testing.

[2] = Solid stability test of the crystalline form A; assay type: physicochemical

Structure (SMILES): Cc1sc2c(c1C)C(c1ccc(Cl)cc1)=N[C@@H](CC(=O)Nc1ccc3c(c1)COC3=O)c1nnc(C)n1-2
- Moisture absorption classification [1]: slightly hygroscopic
- ΔW, increase in weight by moisture sorption [1]: 1.789%
- Appearance ([2]; 0 day (initial)): White
- Content ([2]; 0 day (initial)): 98.7%
- Crystalline form (XRPD) ([2]; 0 day (initial)): form A
- Total impurity ([2]; 0 day (initial)): 0.17%
- Appearance ([2]; 25° C./60% RH, sealed, 90 days): White
- Content ([2]; 25° C./60% RH, sealed, 90 days): 99.4%
- Crystalline form (XRPD) ([2]; 25° C./60% RH, sealed, 90 days): form A
- Total impurity ([2]; 25° C./60% RH, sealed, 90 days): 0.12%
- Appearance ([2]; 40° C./75% RH, sealed, 90 days): White
- Content ([2]; 40° C./75% RH, sealed, 90 days): 99.2%
- Crystalline form (XRPD) ([2]; 40° C./75% RH, sealed, 90 days): form A
- Total impurity ([2]; 40° C./75% RH, sealed, 90 days): 0.19%
- Solid stability (conclusion) ([2]; accelerated and prolonged conditions, 90 days): good stability
